System: macrophage cell line derived from TRIF/TRAM knockout mice (NR-9568)
Experiment: Cytokine/chemokine induction in TRIF/TRAM double-knockout cell line
Type: cell-based
Settings: TRIF/TRAM double-knockout murine cell line
Procedure: Cytokine induction by 7e and 7f was examined in murine-derived cell lines. […] The absence of activity was not due to extensive plasma protein binding by re-examining under near-serum-free conditions.
Example 5: High-throughput screens in porcine blood: Curated compound collections were obtained from the Institute for Therapeutics Discovery & Development at the University of Minnesota. Compound transfers from source (80 nL of 10 mM stocks) to assay plates were performed using an Echo 550 acoustic liquid handler (Labcyte, Sunnyvale, Calif.). For most libraries, a target final concentration of 10 μM of compound (in a final volume of 80 μL for the assay described below) was achieved. Compound plates were hermetically sealed and stored at −80° C. until used. Fresh, heparin-anticoagulated porcine blood from healthy animals were obtained under USDA supervision from Midwest Research Swine, LLC (Glencoe, Minn.). 80 μL of hematocrit-enriched porcine blood (low-speed centrifugation, followed by resuspension in DMEM supplemented with 10% fetal bovine serum) was added to compound plates and incubated for 15 h. […] NF-κB translocation was assayed spectrophotometrically using an alkaline phosphatase-specific chromogen (present in HEK-detection medium as supplied by InvivoGen) at 620 nm using a SpectraMax M4 multimode microplate reader (Molecular Devices, Sunnyvale, Calif.). […] Example 7: Human NOD1/2-specific reporter gene assays (NF-κB induction), and TLR-2/-3/-4/-5/-7/-8/-9/STING/ISG counter-screens: The induction of NF-κB was quantified using human TLR-2/-3/-4/-5/-7/-8/-9/NOD-1/NOD-2/STING/ISG-specific, rapid-throughput, liquid handler-assisted reporter gene assays as previously described by us (Wu, W. et al. J. Med. Chem. 2010, 53, 3198-3213; Shukla, N. M. et al. J. Med. Chem. 2010, 53, 4450-4465; Agnihotri, G. et al. J. Med. Chem. 2011, 54, 1490-1510 and Ukani, R. et al. Bioorg. Med. Chem. Lett. 2012, 22, 293-295). […]

| Structure (SMILES) | cytokine and chemokine induction |
| --- | --- |
| CCCCCCc1nc2ccccc2n1-c1csc(C(N)=O)c1 [Compound 7f, 4-(2-Hexyl-1H-benzo[d]imidazol-1-yl)thiophene-2-carboxamide] | essentially identical to that of 7e |
| CCCCCc1nc2ccccc2n1-c1csc(C(N)=O)c1 [Compound 7e, 4-(2-Pentyl-1H-benzo[d]imidazol-1-yl)thiophene-2-carboxamide] | abrogation of responsiveness |
